Data published in patent publication EP0582261A1, “Cephalosporin compounds and processes for the preparation thereof” (LUCKY LTD., priority 1992, dated 1994).

Tests used:
Experiment in all cases: MIC, two-fold dilution method on Müller-Hinton agar
Type in all cases: cell-based
Conditions in all cases: incubated at 37°C for 20 hours
[1] = tested on: Bacillus cereus ATCC 11778
Description: (§1) The same procedures as described in Example 163 were repeated using 7-amino-1,8-dimethyl[1,3]imidazo[1,2-c] pyrimidine-5-thione prepared in Preparation Example 36 in place of 7-amino-1-methyl[1,3]imidazo[1,2-c]pyrimidine-5-thione to yield 190mg and 180mg of the title compound(a) and (b), respectively, as white solids.
(§2) These MIC values were taken by employing a two-fold dilution method: that is, two-fold serial dilutions of each of the test compounds were made and dispersed in a Müller-Hinton agar medium; 2µl of the standard test strain which had the 10⁷ CFU(Colony Forming Unit) per ml was inoculated on the medium; and these were incubated at 37°C for 20 hours.

[2] = tested on: Shigella sonnei ATCC 11060
Description: as §1, §2

[3] = tested on: Staphylococcus epidermidis ATCC 12228
Description: as §1, §2

[4] = tested on: Staphylococcus aureus ATCC 10537
Description: as §1, §2

[5] = tested on: Pseudomonas aeruginosa ATCC 10145
Description: as §1, §2

[6] = tested on: Acinetobacter calcoaceticus ATCC 15473
Description: as §1, §2

[7] = tested on: Serratia marcescens ATCC 27117
Description: as §1, §2

[8] = tested on: Shigella flexneri ATCC 11836
Description: as §1, §2

[9] = tested on: Escherichia coli ATCC 25922
Description: as §1, §2

[10] = tested on: Citrobacter freundii ATCC 8090
Description: as §1, §2

[11] = tested on: Klebsiella pneumoniae ATCC 10031
Description: as §1, §2

[12] = tested on: Pseudomonas aeruginosa ATCC 25619
Description: as §1, §2

[13] = tested on: Streptococcus faecalis ATCC 29212
Description: as §1, §2

[14] = tested on: Staphylococcus aureus ATCC 6538p
Description: as §1, §2

[15] = tested on: Bacillus megaterium ATCC 9885
Description: as §1, §2

[16] = tested on: Enterobacter cloacae ATCC 27508
Description: as §1, §2

[17] = tested on: Escherichia coli ATCC 10536
Description: as §1, §2

[18] = tested on: Morganella morganii ATCC 8076h
Description: as §1, §2

[19] = tested on: Enterobacter aerogenes ATCC 29751
Description: as §1, §2

[20] = tested on: Proteus mirabilis ATCC 25933
Description: as §1, §2

[21] = tested on: Proteus vulgaris ATCC 6059
Description: as §1, §2

[22] = tested on: Pseudomonas aeruginosa ATCC 27853
Description: as §1, §2

[23] = tested on: Providencia rettgeri ATCC 9250
Description: as §1, §2

[24] = tested on: Salmonella typhimurium ATCC 14028
Description: as §1, §2

[25] = tested on: Micrococcus luteus ATCC 9341
Description: as §1, §2

Substance | MIC values against the standard strains [1] [µg/mL] | MIC values against the standard strains [2] [µg/mL] | MIC values against the standard strains [3] [µg/mL] | MIC values against the standard strains [4] [µg/mL] | MIC values against the standard strains [5] [µg/mL] | MIC values against the standard strains [6] [µg/mL] | MIC values against the standard strains [7] [µg/mL] | MIC values against the standard strains [8] [µg/mL] | MIC values against the standard strains [9] [µg/mL] | MIC values against the standard strains [10] [µg/mL] | MIC values against the standard strains [11] [µg/mL] | MIC values against the standard strains [12] [µg/mL] | MIC values against the standard strains [13] [µg/mL] | MIC values against the standard strains [14] [µg/mL] | MIC values against the standard strains [15] [µg/mL] | MIC values against the standard strains [16] [µg/mL] | MIC values against the standard strains [17] [µg/mL] | MIC values against the standard strains [18] [µg/mL] | MIC values against the standard strains [19] [µg/mL] | MIC values against the standard strains [20] [µg/mL] | other results
7-[(Z)-2-(2-aminothiazol-4-yl)-2-(methoxy-imino)acetamido]-3-(7-amino-1-methyl[1,2,4]triazolo[1,5-c]pyrimidinium-5-yl)thiomethyl-3-cephem-4-carboxylate [Exp. 46] | 8 | 0.063 | 0.063 | 0.063 | 4 | 2 | 0.13 | 0.016 | 0.031 | 0.031 | ≤0.008 | 2 | 16 | 0.13 | 0.063 | ≤0.008 | 0.031 | ≤0.008 | 0.13 | 0.13 | MIC values against the standard strains [21]: 0.063 µg/mL; MIC values against the standard strains [22]: 2 µg/mL; MIC values against the standard strains [23]: ≤0.008 µg/mL; MIC values against the standard strains [24]: 0.063 µg/mL; MIC values against the standard strains [25]: 0.016 µg/mL
7-[(Z)-2-(5-amino-1,2,4-thiadiazol-3-yl)-2-(ethoxyimino)acetamido]-3-(7-amino-1-methyl[1,2,4] triazolo[1,5-c]pyrimidinium-5-yl)thiomethyl-3-cephem-4-carboxylate [Exp. 72] | 16 | 0.063 | 0.25 | 0.13 | 4 | 1 | 0.25 | 0.031 | 0.063 | 0.063 | 0.016 | 1 | 8 | 0.25 | 0.063 | ≤0.008 | 0.063 | ≤0.008 | 0.25 | 0.25 | MIC values against the standard strains [21]: 0.5 µg/mL; MIC values against the standard strains [22]: 4 µg/mL; MIC values against the standard strains [23]: ≤0.008 µg/mL; MIC values against the standard strains [24]: 0.25 µg/mL; MIC values against the standard strains [25]: 0.016 µg/mL
